These are literature values, as cited in patent US4127537A, “Novel tetracosapeptides, intermediates therefor and pharmaceutical compositions and methods employing said tetracosapeptides” (priority 1977, dated 1978).

One series concerns rat. To be noted: injected directly into the brain of the rat; Belluzzi et al., Nature 260, 625 (1976).
Series [1] deals with brain opiate receptor sites. To be noted: natural peptide; Bradbury et al., Nature 260, 793 (1976).

With “H-Tyr-Gly-Gly-Phe-Met-OH [methionine enkephalin]”, in the series on rat, the analgesic activity entry was “weak analgesic agent of short duration”. The “binding to partially purified brain opiate receptor sites” value in series [1] is recorded as “binds stereo-specifically”.
